Test results: PubChem BioAssay (NCI)
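Assay format: 96-well plates, 48-hour exposure. GI50: concentration for 50% inhibition of growth. TGI: total growth inhibition.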

How the values were obtained:
Assay in all cases: DTP human tumour cell line panel, 48 h
HCT-116 colon = system: HCT-116 colon
A498 renal = system: A498 renal
NCI-H460 lung = system: NCI-H460 lung
MALME-3M melanoma = system: MALME-3M melanoma
HOP-62 NSCLC = system: HOP-62 NSCLC
SF-295 CNS = system: SF-295 CNS
TK-10 renal = system: TK-10 renal
CAKI-1 renal = system: CAKI-1 renal
SF-268 CNS = system: SF-268 CNS
LOX IMVI melanoma = system: LOX IMVI melanoma

Compound | TGI (HCT-116 colon) [µM] | TGI (A498 renal) [µM] | TGI (NCI-H460 lung) [µM] | TGI (MALME-3M melanoma) [µM] | TGI (HOP-62 NSCLC) [µM] | TGI (SF-295 CNS) [µM] | TGI (TK-10 renal) [µM] | TGI (CAKI-1 renal) [µM] | TGI (SF-268 CNS) [µM] | GI50 (HCT-116 colon) [µM] | GI50 (A498 renal) [µM] | GI50 (NCI-H460 lung) [µM] | GI50 (MALME-3M melanoma) [µM] | GI50 (HOP-62 NSCLC) [µM] | GI50 (SF-295 CNS) [µM] | GI50 (TK-10 renal) [µM] | GI50 (LOX IMVI melanoma) [µM] | TGI (LOX IMVI melanoma) [µM] | GI50 (CAKI-1 renal) [µM] | GI50 (SF-268 CNS) [µM]
CC(C)=CC(=O)Oc1ccc([N+](=O)[O-])cc1 | > 100 | > 100 | > 100 | > 100 | > 100 | > 100 | > 100 | 53.8 | > 100 |  |  |  |  |  |  |  |  |  |  | 
CC([C@H]1CCC2C3CCC4C[C@@H](NC=O)CC[C@]4(C)C3CC[C@@]21C)N(C)C (stereo partly drawn) | 3.22 | 11.9 | 4.04 | 4.83 | 5.19 | 5.58 | 24.7 | 11.9 | 3.93 | 1.54 | 2.51 | 1.89 | 2.18 | 2.15 | 2.14 | 10.1 | 1.53 | 3.37 | 4.26 | 1.7
FC(F)(F)c1cccc(COCCN2CCN(Cc3cccc(C(F)(F)F)c3)CC2)c1 | 34.9 | 28.8 | 34.7 | 22.5 | 42.1 | 37.5 | 27.4 | 31.3 | 30.3 |  |  |  |  |  |  |  |  |  |  | 
Cc1cccc(C)c1NC(=O)/C(Cl)=C(/Cl)C(=O)O | 36.4 | 60.6 | > 69.9 | 29.7 | > 81.7 | > 56.1 | 21.6 | 15.1 | 32.6 |  |  |  |  |  |  |  |  | 34.3 |  | 
c1ccc2[nH]c(SSc3nc4ncncc4[nH]3)nc2c1 | > 100 | > 91.1 | > 100 | > 66.1 | > 100 |  | > 37.3 | 3.77 | > 100 | 0.913 | 8.11 | 4.48 | 2.01 | 0.427 | 0.457 | 0.364 | 0.279 | > 44.6 | 0.212 | 4.13
COC(=O)NC/C=C\c1nc(CC/C=C\C(=O)OC2CC3CC(=O)O[C@H](/C=C/CC(C)C)C[C@H]4CCC(C)C(C[C@H](OC)CC(C2)O3)O4)co1 (stereo partly drawn) | 37.5 | 57.1 | 63.5 | 45.1 | 62.7 | 61.5 | 74 | 41.1 | 24.3 | < 0.01 | 13.6 | < 0.01 | 17.1 | < 0.01 | < 0.01 | 1.55 |  |  | < 0.01 | < 0.01
COC1/C(=C\C(=O)OC(C)(C)C)c2ccccc2N1C(C)=O (stereo not drawn) | > 100 | > 100 | > 100 |  | > 100 | > 100 |  | > 100 |  |  |  |  |  |  |  |  |  |  |  | 
CC(=O)NC1=C(Nc2ccc(C)cc2)C(=O)c2ccccc2C1=O | 48.5 | > 75 | 22.9 | 22.8 | 37.6 | 54.7 | > 75 | > 75 | > 75 |  |  |  |  |  |  |  |  | 21.3 |  | 
C=C1C(=O)O[C@@H]2C1C[C@@H](O)/C(C)=C/C/C=C(\C)CCC[C@H](C)[C@H]2OC(C)=O (stereo partly drawn) | 27 | > 100 | > 100 |  | > 100 | > 100 | 52.7 | > 100 | > 100 | 14.1 | 54 | > 100 |  | 45.4 | > 100 | 24.2 | 21.9 | 47.2 | 32.8 | 33.9
O=C(O)c1c2c(c(C(=O)O)c3ccccc13)-c1ccccc1-2 | > 100 | > 100 |  | > 100 | > 100 | > 100 | > 100 |  | > 100 |  |  |  |  |  |  |  |  | > 100 |  | 
CC(=O)[CH-]C(=O)c1ccccc1.CC(=O)[CH-]C(=O)c1ccccc1.CC(=O)[CH-]C(=O)c1ccccc1.[Tl+3] | > 100 | > 100 | > 100 | 49.2 | 99.9 | > 100 | > 100 | > 100 | > 100 | 28.2 | > 100 | 22.6 | 20.2 | 33.5 | 48.7 | > 59.2 | 42.7 | > 100 | 75 | 29.3
CCOC(=O)Cc1csc(/N=C2\NC(=O)/C(=C3\C(=O)N(C)c4ccccc43)S2)n1 | 60.1 | > 100 | 55.9 | 95.2 | 87.9 | 87 | > 100 | 67.9 | > 100 | 28.1 | 46.8 | 20.7 | 21.8 | 30.1 | 29.8 | 31.9 | 34.6 | > 100 | 23.5 | 45.2
CCOc1cc2c(cnc3c4cc(OC)c(OC)cc4ccc23)cc1OC | > 100 | > 100 | > 100 | > 100 | > 100 | > 100 | > 100 | > 100 | > 100 |  |  |  |  |  |  |  |  |  |  | 
COc1ccc2c(c1)nc(N)c1c3cc(OC)c(OC)cc3cn21 | 13.7 | 0.592 | 11 | 37.7 | 16.9 | 16.2 | 20.8 | 19.8 | 17.5 | < 0.01 | 0.0135 | 0.0606 | 9.39 |  |  | 3.48 |  | 18.4 |  | 
C=C(Cl)COC(=O)Nc1cccc(Cl)c1 | 78.7 | 90.4 | > 100 |  | > 100 | 96.2 | > 100 | > 100 | > 100 |  |  |  |  |  |  |  |  | > 100 |  | 
O=C(NC1CC1)c1ccc(-c2nc3ccc4[nH]ncc4c3c3c2CCCC3)cc1 | 14 | 5.01 | 12.2 | 11.6 | 24.8 | 13.6 | 25.6 |  | 14 | 1.34 | 1.03 | 2.05 | 3.46 | 1.25 | 2.24 | 0.991 | 1.95 | 11.7 |  | 1.87
